Our source for the Activity values is ChEMBL document CHEMBL3044564, “Synthesis and antihypertensive activity evaluation in spontaneously hypertensive rats of lacidipine analogues” (2012).

Structures are written as SMILES.

In assay [1] the test system is Rattus norvegicus. In words: Antihypertensive activity in spontaneously hypertensive Rattus norvegicus (rat) assessed as reduced systolic blood pressure at 1 mg/kg intragastrically administered. The following applies: route intragastric. It is filed as functional, Artery.
For assay [2], the system named is Rattus norvegicus. In words: Antihypertensive activity in spontaneously hypertensive Rattus norvegicus (rat) assessed as reduced systolic blood pressure at 1 mg/kg intragastrically administered measured at 6 hr post compound treatment (reference value: -2 +/- 3 mmHg). The following applies: route intragastric. The class given is functional, Artery.
Assay [3] has as its system Rattus norvegicus. In words: Antihypertensive activity in spontaneously hypertensive Rattus norvegicus (rat) assessed as reduced systolic blood pressure at 2 mg/kg intragastrically administered measured at 6 hr post compound treatment (reference value: -2 +/- 3 mmHg). The class given is functional, Artery. The following applies: route intragastric.
The test system of assay [4] is Rattus norvegicus. In words: Antihypertensive activity in spontaneously hypertensive Rattus norvegicus (rat) assessed as reduced systolic blood pressure at 1 mg/kg intragastrically administered measured at 1 hr post compound treatment (reference value: 1 +/- 3 mmHg). It is filed as functional, Artery. The settings on record: route intragastric.
Assay [5] relates to Rattus norvegicus. In words: Antihypertensive activity in spontaneously hypertensive Rattus norvegicus (rat) assessed as reduced systolic blood pressure at 1 mg/kg intragastrically administered measured at 2 hr post compound treatment (reference value: -1 +/- 2 mmHg). It is filed as functional, Artery. The settings on record: route intragastric.
Assay [6] concerns Rattus norvegicus. In words: Antihypertensive activity in spontaneously hypertensive Rattus norvegicus (rat) assessed as reduced systolic blood pressure at 2 mg/kg intragastrically administered measured at 8 hr post compound treatment (reference value: -3 +/- 3 mmHg). It is filed as functional, Artery. The following applies: route intragastric.
Assay [7] concerns Rattus norvegicus. In words: Antihypertensive activity in spontaneously hypertensive Rattus norvegicus (rat) assessed as reduced systolic blood pressure at 2 mg/kg intragastrically administered measured at 1 hr post compound treatment (reference value: 1 +/- 3 mmHg). The following applies: route intragastric. It is filed as functional, Artery.
Assay [8] concerns Rattus norvegicus. In words: Antihypertensive activity in spontaneously hypertensive Rattus norvegicus (rat) assessed as reduced systolic blood pressure at 2 mg/kg intragastrically administered measured at 2 hr post compound treatment (reference value: -1 +/- 2 mmHg). The class given is functional, Artery. The following applies: route intragastric.
Assay [9] relates to Rattus norvegicus. In words: Antihypertensive activity in spontaneously hypertensive Rattus norvegicus (rat) assessed as reduced systolic blood pressure at 1 mg/kg intragastrically administered measured at 4 hr post compound treatment (reference value: -1 +/- 3 mmHg). The following applies: route intragastric. The class given is functional, Artery.
Assay [10] has as its system Rattus norvegicus. In words: Antihypertensive activity in spontaneously hypertensive Rattus norvegicus (rat) assessed as reduced systolic blood pressure at 0.5 mg/kg intragastrically administered measured at 1 hr post compound treatment (reference value: 1 +/- 3 mmHg). It is filed as functional, Artery. The settings on record: route intragastric.
Assay [11] deals with Rattus norvegicus. In words: Antihypertensive activity in spontaneously hypertensive Rattus norvegicus (rat) assessed as reduction in systolic blood pressure compound intragastrically administered measured at 1 to 20 hr post compound treatment. The class given is functional, organism-based. The following applies: Artery.
Assay [12] has as its system Rattus norvegicus. In words: Antihypertensive activity in spontaneously hypertensive Rattus norvegicus (rat) assessed as reduced systolic blood pressure at 2 mg/kg intragastrically administered measured at 20 hr post compound treatment (reference value: -2 +/- 4 mmHg). It is filed as functional, Artery. The following applies: route intragastric.
Assay [13] has as its system Rattus norvegicus. In words: Antihypertensive activity in spontaneously hypertensive Rattus norvegicus (rat) assessed as reduced systolic blood pressure at 2 mg/kg intragastrically administered measured at 4 hr post compound treatment (reference value: -1 +/- 3 mmHg). It is filed as functional, Artery. The following applies: route intragastric.

Regarding `CCCCN(C)C(=O)/C=C/c1ccccc1C1C(C(=O)OCC)=C(C)NC(C)=C1C(=O)OCC`, in the assay with Rattus norvegicus [1], the Activity came out at 27 mmHg.
On the same count and under the same terms, for `CCOC(=O)C1=C(C)NC(C)=C(C(=O)OCC)C1c1ccccc1/C=C/C(=O)NCC(C)C` the value was 15 mmHg.
On the same count and under the same terms, next, `CCOC(=O)C1=C(C)NC(C)=C(C(=O)OCC)C1c1ccccc1/C=C/C(=O)N(CC)CC`: 33 mmHg.
On to `CCOC(=O)C1=C(C)NC(C)=C(C(=O)OCC)C1c1ccccc1/C=C/C(=O)N(C)C(C)(C)C`, for which the Activity turned out to be 3 mmHg in the assay with Rattus norvegicus [2]; 45 mmHg in the assay with Rattus norvegicus [3]; 46 mmHg in the assay with Rattus norvegicus [4]; 34 mmHg in the assay with Rattus norvegicus [5]; 43 mmHg in the assay on Rattus norvegicus [6]; 44 mmHg with Rattus norvegicus [7]. Besides, the Activity in the assay on Rattus norvegicus [1] was 46 mmHg; with Rattus norvegicus [8] it was 53 mmHg; in the assay on Rattus norvegicus [9] it was 20 mmHg; in the assay on Rattus norvegicus [10] it was 11 mmHg; in the assay with Rattus norvegicus [11], “Dose-dependent effect”; in the assay with Rattus norvegicus [12], 25 mmHg. In addition, the Activity in the assay on Rattus norvegicus [13] turned out to be 47 mmHg.
On to `CCOC(=O)C1=C(C)NC(C)=C(C(=O)OCC)C1c1ccccc1/C=C/C(=O)N1CCCCC1`, for which the Activity in the assay on Rattus norvegicus [1] is recorded as 22 mmHg.
Still for that read-out and setting: next, `CCOC(=O)C1=C(C)NC(C)=C(C(=O)OCC)C1c1ccccc1/C=C/C(=O)NC(C)(C)C`: 44 mmHg; `CCOC(=O)C1=C(C)NC(C)=C(C(=O)OCC)C1c1ccccc1/C=C/C(=O)OC(C)(C)C` [LACIDIPINE]: 50 mmHg.
